Laboratory results reported in patent publication US10519152B2, “Compounds and their use in treating cancer” (AstraZeneca AB, priority 2017, dated 2019).

Target: T1, Estrogen Receptor (ERα) in MCF-7 human ductal carcinoma breast cell line (Homo sapiens, UniProt P03372)
T1 construct: endogenous in cells; host or cells: MCF-7
T1 sequence (P03372 1-595): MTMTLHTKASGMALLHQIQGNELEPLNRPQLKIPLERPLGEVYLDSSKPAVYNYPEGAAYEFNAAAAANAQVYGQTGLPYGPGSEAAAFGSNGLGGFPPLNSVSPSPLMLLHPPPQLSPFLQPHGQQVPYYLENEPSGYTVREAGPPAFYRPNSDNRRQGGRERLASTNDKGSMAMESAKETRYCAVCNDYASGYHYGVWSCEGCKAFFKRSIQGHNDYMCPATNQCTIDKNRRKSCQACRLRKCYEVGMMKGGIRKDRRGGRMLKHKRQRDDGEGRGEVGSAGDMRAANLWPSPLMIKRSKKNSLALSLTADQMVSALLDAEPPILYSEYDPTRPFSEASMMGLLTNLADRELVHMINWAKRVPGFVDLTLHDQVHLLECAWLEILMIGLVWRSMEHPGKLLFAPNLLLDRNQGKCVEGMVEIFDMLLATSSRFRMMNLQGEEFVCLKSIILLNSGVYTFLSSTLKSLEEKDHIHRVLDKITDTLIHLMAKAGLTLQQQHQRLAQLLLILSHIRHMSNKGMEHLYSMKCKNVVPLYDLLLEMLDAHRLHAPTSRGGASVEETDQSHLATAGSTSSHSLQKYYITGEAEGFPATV
Test: MCF-7 ER degradation assay (cell based immuno-fluorescence)
Conditions: MCF-7 cells; for ER degradation ≥ 90% at 0.3 μM: ER degradation by fulvestrant at 0.3 μM is defined as 100%; for DC50: 18-22 hours incubation, 50% reduction of ERα expression, single experiment or average of two or more, read-out: MCF-7 ER degradation IC50
Outline: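 MCF-7 human ductal carcinoma breast cells were seeded at 3.75×10^4 cells per mL (40 μL per well) in 384 well plates with phenol red free DMEM containing 2 mM L-Glutamine and 5% (v/v) Charcoal/Dextran treated foetal calf serum. After overnight culture, compounds were acoustically dispensed, incubated 18-22 hours, then cells were formaldehyde-fixed and immunostained for ERα.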

| Compound | ER degradation ≥ 90% at 0.3 μM | DC50 |
| --- | --- | --- |
| Cc1ncsc1-c1ccc(CNC(=O)[C@@H]2C[C@@H](O)CN2C(=O)[C@@H](NC(=O)COCCOCCOCCOCCOCCOCC(=O)Nc2ccc([C@@H]3c4[nH]c5ccccc5c4C[C@@H](C)N3CC(C)(C)F)cc2)C(C)(C)C)cc1 [Example 54, N^1-(4-((1R,3R)-2-(2-fluoro-2-methylpropyl)-3-methyl-2,3,4,9-tetrahydro-1H-pyrido[3,4-b]indol-1-yl)phenyl)-N^18—((S)-1-((2S,4R)-4-hydroxy-2-(4-(4-methylthiazol-5-yl)benzylcarbamoyl)pyrrolidin-1-yl)-3,3-dimethyl-1-oxobutan-2-yl)-2,5,8,11,14,17-hexaoxaoctadecane-1,18-dicarboxamide, Trifluoroacetic Acid] | •• | 1.7 nM |
| Cc1ncsc1-c1ccc(CNC(=O)[C@@H]2C[C@@H](O)CN2C(=O)[C@@H](NC(=O)COCCCCOc2cc(F)c([C@@H]3c4[nH]c5ccccc5c4C[C@@H](C)N3CC(C)(C)F)c(F)c2)C(C)(C)C)cc1 [Example 14, (2S,4R)-1-((S)-2-(2-(4-(3,5-Difluoro-4-((1R,3R)-2-(2-fluoro-2-methylpropyl)-3-methyl-2,3,4,9-tetrahydro-1H-pyrido[3,4-b]indol-1-yl)phenoxy)butoxy)acetamido)-3,3-dimethylbutanoyl)-4-hydroxy-N-(4-(4-methylthiazol-5-yl)benzyl)pyrrolidine-2-carboxamide] | • | 1.4 nM |
| Cc1ncsc1-c1ccc([C@H](C)NC(=O)[C@@H]2C[C@@H](O)CN2C(=O)[C@@H](NC(=O)COCCCCOCCCOc2cc(F)c([C@@H]3c4[nH]c5ccccc5c4C[C@@H](C)N3CC(C)(C)F)c(F)c2)C(C)(C)C)cc1 [Example 154, (2S,4R)-1-((S)-2-(2-(4-(3-(3,5-Difluoro-4-((1R,3R)-2-(2-fluoro-2-methylpropyl)-3-methyl-2,3,4,9-tetrahydro-1H-pyrido[3,4-b]indol-1-yl)phenoxy)propoxy)butoxy)acetamido)-3,3-dimethylbutanoyl)-4-hydroxy-N—((S)-1-(4-(4-methylthiazol-5-yl)phenyl)ethyl)pyrrolidine-2-carboxamide] | • | 0.7 nM |
| Cc1ncsc1-c1ccc([C@H](C)NC(=O)[C@@H]2C[C@@H](O)CN2C(=O)[C@@H](NC(=O)COCCCOCCCOc2cc(F)c([C@@H]3c4[nH]c5ccccc5c4C[C@@H](C)N3CC(C)(C)F)c(F)c2)C(C)(C)C)cc1 [Example 152, (2S,4R)-1-((S)-2-(2-(3-(3-(3,5-Difluoro-4-((1R,3R)-2-(2-fluoro-2-methylpropyl)-3-methyl-2,3,4,9-tetrahydro-1H-pyrido[3,4-b]indol-1-yl)phenoxy)propoxy)propoxy)acetamido)-3,3-dimethylbutanoyl)-4-hydroxy-N—((S)-1-(4-(4-methylthiazol-5-yl)phenyl)ethyl)pyrrolidine-2-carboxamide] | •• | 0.8 nM |
| Cc1ncsc1-c1ccc([C@H](C)NC(=O)[C@@H]2C[C@@H](O)CN2C(=O)[C@@H](NC(=O)COCCCOCCCCCOc2cc(F)c([C@@H]3c4[nH]c5ccccc5c4C[C@@H](C)N3CC(C)(C)F)c(F)c2)C(C)(C)C)cc1 [Example 137, (2S,4R)-1-((S)-2-(2-(3-((5-(3,5-Difluoro-4-((R,3R)-2-(2-fluoro-2-methylpropyl)-3-methyl-2,3,4,9-tetrahydro-1H-pyrido[3,4-b]indol-1-yl)phenoxy)pentyl)oxy)propoxy)acetamido)-3,3-dimethylbutanoyl)-4-hydroxy-N—((S)-1-(4-(4-methylthiazol-5-yl)phenyl)ethyl)pyrrolidine-2-carboxamide] | •• | 0.8 nM |
| Cc1ncsc1-c1ccc(CNC(=O)[C@@H]2C[C@@H](O)CN2C(=O)[C@@H](NC(=O)CCCCCCCCCOc2cc(F)c([C@@H]3c4[nH]c5ccccc5c4C[C@@H](C)N3CC(C)(C)F)c(F)c2)C(C)(C)C)cc1 [Example 11, (2S,4R)-1-((S)-2-(10-(3,5-Difluoro-4-((1R,3R)-2-(2-fluoro-2-methylpropyl)-3-methyl-2,3,4,9-tetrahydro-1H-pyrido[3,4-b]indol-1-yl)phenoxy)decanamido)-3,3-dimethylbutanoyl)-4-hydroxy-N-(4-(4-methylthiazol-5-yl)benzyl)pyrrolidine-2-carboxamide] | •• | 3.2 nM |
| Cc1ncsc1-c1ccc(CNC(=O)[C@@H]2C[C@@H](O)CN2C(=O)[C@@H](NC(=O)COCCCCCOc2ccc([C@@H]3c4[nH]c5ccccc5c4C[C@@H](C)N3CC(F)F)nc2)C(C)(C)C)cc1 [Example 17, (2S,4R)-1-((S)-2-(2-((5-((6-((1S,3R)-2-(2,2-Difluoroethyl)-3-methyl-2,3,4,9-tetrahydro-1H-pyrido[3,4-b]indol-1-yl)pyridin-3-yl)oxy)pentyl)oxy)acetamido)-3,3-dimethylbutanoyl)-4-hydroxy-N-(4-(4-methylthiazol-5-yl)benzyl)pyrrolidine-2-carboxamide] | • | 41 nM |
| Cc1ncsc1-c1ccc(CNC(=O)[C@@H]2C[C@@H](O)CN2C(=O)[C@@H](NC(=O)COCCCCCCOc2ccc([C@@H]3c4[nH]c5ccccc5c4C[C@@H](C)N3CC(F)F)nc2)C(C)(C)C)cc1 [Example 8, (2S,4R)-1-((S)-2-(2-((6-((6-((1S,3R)-2-(2,2-Difluoroethyl)-3-methyl-2,3,4,9-tetrahydro-1H-pyrido[3,4-b]indol-1-yl)pyridin-3-yl)oxy)hexyl)oxy)acetamido)-3,3-dimethylbutanoyl)-4-hydroxy-N-(4-(4-methylthiazol-5-yl)benzyl)pyrrolidine-2-carboxamide] | •• | 9.4 nM |
| Cc1ncsc1-c1ccc(CNC(=O)[C@@H]2C[C@@H](O)CN2C(=O)[C@@H](NC(=O)CNCc2ccc(COc3cc(F)c([C@@H]4c5[nH]c6ccccc6c5C[C@@H](C)N4CC(C)(C)F)c(F)c3)nc2)C(C)(C)C)cc1 [Example 146] | • | 0.6 nM |
| Cc1ncsc1-c1ccc([C@H](C)NC(=O)[C@@H]2C[C@@H](O)CN2C(=O)[C@@H](NC(=O)COCCOCCCCCOc2cc(F)c([C@@H]3c4[nH]c5ccccc5c4C[C@@H](C)N3CC(C)(C)F)c(F)c2)C(C)(C)C)cc1 [Example 156, (2S,4R)-1-((S)-2-(2-(2-((5-(3,5-Difluoro-4-((1R,3R)-2-(2-fluoro-2-methylpropyl)-3-methyl-2,3,4,9-tetrahydro-1H-pyrido[3,4-b]indol-1-yl)phenoxy)pentyl)oxy)ethoxy)acetamido)-3,3-dimethylbutanoyl)-4-hydroxy-N—((S)-1-(4-(4-methylthiazol-5-yl)phenyl)ethyl)pyrrolidine-2-carboxamide] | •• | 1.5 nM |
| Cc1ncsc1-c1ccc(CNC(=O)[C@@H]2C[C@@H](O)CN2C(=O)[C@@H](NC(=O)COCCOCCC(F)(F)CCOc2cc(F)c([C@@H]3c4[nH]c5ccccc5c4C[C@@H](C)N3CC(C)(C)F)c(F)c2)C(C)(C)C)cc1 [Example 127, (2S,4R)-1-((S)-2-(2-(2-((5-(3,5-Difluoro-4-((R,3R)-2-(2-fluoro-2-methylpropyl)-3-methyl-2,3,4,9-tetrahydro-1H-pyrido[3,4-b]indol-1-yl)phenoxy)-3,3-difluoropentyl)oxy)ethoxy)acetamido)-3,3-dimethylbutanoyl)-4-hydroxy-N-(4-(4-methylthiazol-5-yl)benzyl)pyrrolidine-2-carboxamide] | •• | 0.8 nM |
| Cc1ncsc1-c1ccc(CNC(=O)[C@@H]2C[C@@H](O)CN2C(=O)[C@@H](NC(=O)COCCOCCOCCOCCOc2cc(F)c([C@@H]3c4[nH]c5ccccc5c4C[C@@H](C)N3CC(C)(C)F)c(F)c2)C(C)(C)C)cc1 [Example 37, (2S,4R)-1-((S)-2-(tert-Butyl)-17-(3,5-difluoro-4-((1R,3R)-2-(2-fluoro-2-methylpropyl)-3-methyl-2,3,4,9-tetrahydro-1H-pyrido[3,4-b]indol-1-yl)phenoxy)-4-oxo-6,9,12,15-tetraoxa-3-azaheptadecanoyl)-4-hydroxy-N-(4-(4-methylthiazol-5-yl)benzyl)pyrrolidine-2-carboxamide] | •• | 3 nM |
| Cc1ncsc1-c1ccc(CNC(=O)[C@@H]2C[C@@H](O)CN2C(=O)[C@@H](NC(=O)COCC/C=C/CCOc2cc(F)c([C@@H]3c4[nH]c5ccccc5c4C[C@@H](C)N3CC(C)(C)F)c(F)c2)C(C)(C)C)cc1 [Example 22, (2S,4R)-1-((S)-2-(2-(((E)-6-(3,5-Difluoro-4-((1R,3R)-2-(2-fluoro-2-methylpropyl)-3-methyl-2,3,4,9-tetrahydro-1H-pyrido[3,4-b]indol-1-yl)phenoxy)hex-3-en-1-yl)oxy)acetamido)-3,3-dimethylbutanoyl)-4-hydroxy-N-(4-(4-methylthiazol-5-yl)benzyl)pyrrolidine-2-carboxamide] | • | 3 nM |
